From patent publication US9499823B2, “Constructs expressing chimeric receptors and use thereof for the controlled activation of defence response to pathogens in plants” (priority 2009, dated 2016)
“Also recorded” adds a separate entry of the source.

How the values were obtained:
[1] = test system: Pseudomonas syringae DC3000; test: Pseudomonas DC3000 infection of Arabidopsis Ws-0 plants by spraying; type: in vivo; conditions: transgenic Ws-0 plants vs Ws-0 wild type, 4 days post infection
From the text: C) Pseudomonas DC3000 infections. (Left Panel) Symptoms disease of wild type and transformed plants after 4 days post infection. (Right panel) Growth of Pseudomonas syringae DC3000 after 4 day post infection. ***, p<0.005.
The authors therefore infected A. thaliana plants by spraying Pst DC3000 bacteria onto leaf surfaces. […] Higher resistance of eJMC plants, compared to Ws-0 wild-type plants, was found in all of three independent experiments.

[2] = test system: agroinfiltrated leaves of the Arabidopsis bak1-4 mutant; test: Receptor internalization in agroinfiltrated leaves of the Arabidopsis bak1-4 mutant; type: cell-based, Arabidopsis thaliana; conditions: 10 μM flg22, 30 min
Protocol: D) Relative variation of fluorescence in agroinfiltrated leaves of the Arabidopsis bak1-4 mutant expressing the indicated receptors and treated for 30 min with 10 μM flg22. Each value was normalised against fluorescence measured after 10 min of stimulation.
The GFP-dependent fluorescence was monitored from 2 to 4 days post infection in cells of the lower epidermis. Pieces of leaf were randomly cut from the infected area and mounted in water or supplemented with elicitors for microscopic observations. Flg22 and elfl8 were used at 10 μM while oligosaccharides were used at 100 μg/mL. Materials were analyzed using a Leica DM IRE epifluorescence microscope equipped with a digital cooled camera (DFC350FX R2; Leica). GFP fluorescence was excited with a 488-nm laser line, and emitted fluorescence was collected at 543-nm. The Leica Confocal Software and Adobe Photoshop 5.0 were used for post-acquisition image processing. All samples were imaged with the 40× or 100× oil objectives. Pictures were taken in Kahlman frame giving an average of 16 scans for the dynamics of internalization and 4 scans for the cellular localizations.
The authors also tested whether the presence of the LRR-RLK BAK1 (Nam & Li 2002), a protein required for flg22 and elfl8 signalling (Chinchilla et al., 2007), is also required for the internalization of eJMC induced by flg22.

[3] = test system: transgenic Arabidopsis Ws-0 seedlings; test: Seedling growth inhibition by flg22 in transgenic Ws-0; type: in vivo, Arabidopsis thaliana; conditions: data not shown
From the text: (§1) Fluorescent eJMC and FLS2 were also stably expressed in transgenic Arabidopsis ecotype Wassilewskija (Ws-0), which carries EFR but lacks a flg22 perception system (Gomez-Gomez et al., 1999, Bauer et al., 2001). Transformed T1 plants expressing the proteins, named eJMC plants and FLS2 plants, respectively, were selected by confocal microscopy analysis of adult rosette leaves. […] Fluorescence was detected only in adult rosette leaves, likely due to a low expression level of the receptor at the different developmental stages.

[4] = test system: RetOx, CYP81F2 and PAD3 transcripts; test: Elicitor-induced accumulation of Ret-Ox, CYP81F2 and PAD3 transcripts, semi-quantitative PCR; type: cell-based, Arabidopsis thaliana; conditions: flg22 1 μM, 30 minutes, stably transformed Ws-0 plants
Protocol: B) Elicitor induced accumulation of Ret-Ox, CYP81F2 and PAD3 transcripts analysed by semi-quantitative PCR, using the UBQ5 gene for normalization. Leaves were incubated with water, flg22 (1 μM), elfl8 (10 μM) or a generic peptide (10 μM) for 30 minutes. The experiment was repeated three times with similar results. The same experiment was performed in a second independent transgenic line expressing eJMC with similar results.
(§2) 3,3′-diaminobenzidine (DAB) staining, callose deposition and gene resistance analysis were assayed as described (Galletti et al., 2008). For measuring active oxygen species released by tobacco agroinfiltrated plants after elicitor treatment, the authors used a modified luminol-dependent assay (Gomez et al., 1999). Slices, corresponding to approximately 30 mg fresh weight, were transferred to assay tubes containing 1 μM flg22 or 10 μM elfl8 in aqueous solution supplied with 40 μM luminol (SIGMA). Chemo-luminescence was measured in a liquid scintillation counter (LS-6500, Beckman) after 5 and 15 min upon addition of elicitors.
as §1

[5] = test system: oxidative burst in tobacco leaves; test: Oxidative burst, luminol-dependent photon counting in agroinfiltrated tobacco leaf slices; type: cell-based, Nicotiana tabacum; conditions: 10 μM elfl8, after 15 min
Protocol: D) Oxidative burst in tobacco leaves transiently expressing eJMC, EFR and EWAK. Photon counting was realized using tobacco leaves slices in a solution of luminol and peroxidase, during treatment with 10 μM elfl8. eJMC- and EFR-expressing explants were used as a negative and a positive control, respectively. Experiment was repeated at least 6 times on two independent replicated.
(C) Oxidative burst in agroinfiltrated tobacco leaves expressing EWAK. Leaves expressing eJMC and EFR were used as a negative and a positive control, respectively. The burst was measured by photon counting using leaf slices incubated in a solution containing 10 μM elfl8, luminol and peroxidase. The experiment was repeated at least 6 times with two independent replicates.
as §2

[6] = test system: At3g22270 and At4g37640 transcripts; test: Elicitor-induced At3g22270 and At4g37640 expression, semi-quantitative PCR, Arabidopsis Col-0 / Col-0 efr; type: cell-based, Arabidopsis thaliana; conditions: transgenic Col-0 efr plants
Protocol: (A) Induction of ethylene biosynthesis in agroinfiltrated tobacco explants expressing EFR, WAK1, WEG and EWAK. […] Agroinfiltrated leaf tissues expressing EFR or WEG and elicited with OGs or elfl8 respectively, represented our negative control. Values are means±s.e.m. (N=3). (B) Elicitor-induced gene expression in untransformed Col-0 and Col-0 efr plants, and in transgenic Arabidopsis Col-0 efr plants stably expressing WEG. Accumulation of At3g22270 and At4g37640 transcripts was analysed by semi-quantitative PCR, using the UBQ5 gene for normalization. Adult leaves were syringe-infiltrated with water, OGs (25 μg/ml) or elfl8 (10 μM) for 3 h. The experiment was repeated three times with similar results. The same experiment was performed in a second independent transgenic line expressing WEG with similar results.
The ability of WEG to activate downstream responses upon stimulation with OGs was analysed in agroinfiltrated tobacco.

B. cinerea = test: Lesion development in Arabidopsis plants inoculated with B. cinerea; type: in vivo; conditions: transgenic Arabidopsis vs Col-0 or Col-0 efr, 48 h post-inoculation
Protocol: (A) Growth of A. tumefaciens in N. tabacum tissues transiently expressing receptor proteins. Tobacco leaves were infiltrated with Agrobacterium carrying the indicated receptor constructs and the number of Agrobacterium colony-forming units (c.f.u.) in the tissues was analyzed immediately after infiltration (white bars) and after 24 h (gray bars). EFR and eJMC were used as positive and negative controls, respectively. For each receptor, three samples were analyzed in five independent experiments. Asterisks indicate statistically significant differences against control (Col-0 for WAK1 plants and Col-0 efr for WEG and EWAK plants). (B) Lesion development in Arabidopsis wild type (Col-0) and mutant Col-0 efr plants and in transgenic plants expressing WAK1, WEG and EWAK plants inoculated with B. cinerea at 48 h post-inoculation. Values are means±s.e.m. of at least 16 lesions. The same experiment was performed in a second independent transgenic line expressing WAK1 with similar results. Asterisks indicate statistically significant differences against control (Col-0 for WAK1 plants and Col-0 efr for WEG and EWAK plants).

[7] = test system: transgenic Arabidopsis leaves; test: Constitutive activation of defense responses (H2O2, callose) in transgenic plants; type: cell-based, Arabidopsis thaliana; conditions: no elicitor
Protocol: Leaves were stained with 3,3′-diaminobenzidine (DAB) for H2O2 visualization (upper panel) and with aniline blue for callose visualization (lower panel).
as §2

Molecule | development of disease symptoms / susceptibility to Pst DC3000 [1] | numbers of bacteria in leaves [1] | internalization induced by flg22 in the bak1-4 mutant [2] | growth inhibition of transgenic seedlings treated with flg22 [3] | expression of RetOx, CYP81F2 and PAD3 induced by flg22 [4] | oxidative burst upon treatment with elfl8 [5] | oxidative burst upon treatment with elfl8 ([5]; listed as eJM) | induction of At3g22270 and At4g37640 by other elicitors ([6]; 3 h) | induction of At3g22270 and At4g37640 by OGs ([6]; OGs 25 μg/ml, 3 h) | constitutive activation of At3g22270 and At4g37640 expression ([6]; water controls) | resistance to B. cinerea infection (B. cinerea) | constitutive activation of defense responses (H2O2 levels, callose deposits) [7]
FLS2 [reference compound] | Ws-0 plants showed a faster and more severe development of disease symptoms | higher numbers of bacteria in Ws-0 | nearly abolished | did not show growth inhibition | induced | – | – | – | – | – | – | –
eJMC: chimera (Arg806FLS2-Val650EFR): LRR and eJM domains of FLS2 fused upstream of TM, iJM and kinase domains of EFR, GFP-fused | Ws-0 plants showed a faster and more severe development of disease symptoms; also recorded: less susceptible | higher numbers of bacteria in Ws-0 | not affected | did not show growth inhibition | induced | not | did not show any significant response | – | – | – | – | –
WEG: chimeric receptor: WAK1 ectodomain fused to the TM-iJM-kinase portion of EFR, GFP-fused (protein, left off: large carriers) QHQPGENCQNKCGNITIEYPFGISSGCYYPGNESFSITCKEDRPHVLSDIEVANFNHSGQLQVLLNRSSTCYDEQGKKTEEDSSFTLENLSLSANNKLTAVGCNALSLLDTFGMQNYSTACLSLCDSPPEADGECNGRGCCRVDVSAPLDSYTFETTSGRIKHMTSFHDFSPCTYAFLVEDDKFNFSSTEDLLNLRNVMRFPVLLDWSVGNQTCEQVGSTSICGGNSTCLDSTPRNGYICRCNEGFDGNPYLSAGCQDVNECTTSSTIHRHNCSDPKTCRNKVGGFYCKCQSGYRLDTTTMSCKRKEVVSGICIGIASLLLIIIVASLCWFMKRKKKNNASDGNPSDSTTLGMFHEKVSYEELHSATSRFSSTNLIGSGNFGNVFKGLLGPENKLVAVKVLNLLKHGATKSFMAECETFKGIRHRNLVKLITVCSSLDSEGNDFRALVYEFMPKGSLDMWLQLEDLERVNDHSRSLTPAEKLNIAIDVASALEYLHVHCHDPVAHCDIKPSNILLDDDLTAHVSDFGLAQLLYKYDRESFLNQFSSAGVRGTIGYAAPEYGMGGQPSIQGDVYSFGILLLEMFSGKKPTDESFAGDYNLHSYTKSILSGCTSSGGSNAIDEGLRLVLQVGIKCSEEYPRDRMRTDEAVRELISIRSKFFSSKTTITESPRDAPQSSPQEWMLNTDMHTM | – | – | – | – | – | – | – | not by other elicitors | induced by OGs | No constitutive activation | increased resistance; also recorded: confers resistance | do not show constitutive activation of defense responses
EFR: Arabidopsis LRR receptor kinase Elongation Factor Tu Receptor (AT5G20480); GFP-fused control (protein) RFSNETDMQALLEFKSQVSENNKREVLASWNHSSPFCNWIGVTCGRRRERVISLNLGGFKLTGVISPSIGNLSFLRLLNLADNSFGSTIPQKVGRLFRLQYLNMSYNLLEGRIPSSLSNCSRLSTVDLSSNHLGHGVPSELGSLSKLAILDLSKNNLTGNFPASLGNLTSLQKLDFAYNQMRGEIPDEVARLTQMVFFQIALNSFSGGFPPALYNISSLESLSLADNSFSGNLRADFGYLLPNLRRLLLGTNQFTGAIPKTLANISSLERFDISSNYLSGSIPLSFGKLRNLWWLGIRNNSLGNNSSSGLEFIGAVANCTQLEYLDVGYNRLGGELPASIANLSTTLTSLFLGQNLISGTIPHDIGNLVSLQELSLETNMLSGELPVSFGKLLNLQVVDLYSNAISGEIPSYFGNMTRLQKLHLNSNSFHGRIPQSLGRCRYLLDLWMDTNRLNGTIPQEILQIPSLAYIDLSNNFLTGHFPEEVGKLELLVGLGASYNKLSGKMPQAIGGCLSMEFLFMQGNSFDGAIPDISRLVSLKNVDFSNNNLSGRIPRYLASLPSLRNLNLSMNKFEGRVPTTGVFRNATAVSVFGNTNICGGVREMQLKPCIVQASPRKRKPLSVRKKVVSGICIGIASLLLIIIVASLCWFMKRKKKNNASDGNPSDSTTLGMFHEKVSYEELHSATSRFSSTNLIGSGNFGNVFKGLLGPENKLVAVKVLNLLKHGATKSFMAECETFKGIRHRNLVKLITVCSSLDSEGNDFRALVYEFMPKGSLDMWLQLEDLERVNDHSRSLTPAEKLNIAIDVASALEYLHVHCHDPVAHCDIKPSNILLDDDLTAHVSDFGLAQLLYKYDRESFLNQFSSAGVRGTIGYAAPEYGMGGQPSIQGDVYSFGILLLEMFSGKKPTDESFAGDYNLHSYTKSILSGCTSSGGSNAIDEGLRLVLQVGIKCSEEYPRDRMRTDEAVRELISIRSKFFSSKTTITESPRDAPQSSPQEWMLNTDMHTM | – | – | – | – | – | produced an oxidative burst; also recorded: robust oxidative burst | – | – | – | – | – | –
